Assay results reported in ChEMBL document CHEMBL3885861, “Open TG-GATES”.

Organism: Rattus norvegicus
Assay: Open TG-GATES - Regimen: Daily Repeat
Assay type: toxicity, organism-based, Sprague-Dawley
Parameters: regimen Daily Repeat, gender Male, age 6 weeks
Conditions: in vivo, po, route gavage; for APTT / Bas / Eos / Fbg / Hb / Ht / Lym / MCHC / MCV / Mono / Neu / PT / Plat / RBC / Ret / WBC: tissue Blood; for KIDNEY_L / KIDNEY_R / KIDNEY_TOTAL: tissue Kidney; for LIVER: tissue Liver; for ALP / ALT / AST / CRE / DBIL / GLC / K / LDH / Na / PL / RALB / TBIL / TC / TG / TP / gamma-GTP / IP / Ca: tissue Plasma
[1] = 200 mg/kg, 72 h, dose level Middle, time 3 day
[2] = 200 mg/kg, […], dose level Middle, time 7 day
[3] = 200 mg/kg, […], dose level Middle, time 14 day
[4] = 200 mg/kg, […], dose level Middle, time 28 day
[5] = 600 mg/kg, 72 h, dose level High, time 3 day
[6] = 600 mg/kg, […], dose level High, time 7 day
[7] = 600 mg/kg, […], dose level High, time 14 day
[8] = 600 mg/kg, […], dose level High, time 28 day

O=C1NC(=O)C(c2ccccc2)(c2ccccc2)N1 [PHENYTOIN]
TERMINAL_BW [1]: 220.5 g
APTT [1]: 21 s
Bas [1]: 0%
Eos [1]: 0.8%
Fbg [1]: 304.4 mg/dL
Hb [1]: 13 g/dL
Ht [1]: 39.4%
Lym [1]: 77.4%
MCHC [1]: 33.1%
MCV [1]: 63.8 fL
Mono [1]: 2.4%
Neu [1]: 18.4%
PT [1]: 15.5 s
Plat [1]: 117 x10_4/uL
RBC [1]: 618.4 x10_4/ul
Ret [1]: 7.3%
WBC [1]: 98.2 x10_2/uL
KIDNEY_L [1]: 0.9 g
KIDNEY_R [1]: 0.9 g
KIDNEY_TOTAL [1]: 1.9 g
LIVER [1]: 10.5 g
ALP [1]: 1568.8 IU/L
ALT [1]: 45.8 IU/L
AST [1]: 75.4 IU/L
CRE [1]: 0.1 mg/dL
DBIL [1]: 0.008 mg/dL
GLC [1]: 185.8 mg/dL
K [1]: 4 meq/L
LDH [1]: 188 IU/L
Na [1]: 143.4 meq/L
PL [1]: 147 mg/dL
RALB [1]: 2.9 g/dL
TBIL [1]: 0.012 mg/dL
TC [1]: 84.4 mg/dL
TG [1]: 85.2 mg/dL
TP [1]: 5.8 g/dL
gamma-GTP [1]: 1 IU/L
TERMINAL_BW [2]: 247.9 g
TERMINAL_BW [3]: 301 g
TERMINAL_BW [4]: 393.6 g
APTT [2]: 22.3 s
Bas [2]: 0%
Eos [2]: 0.6%
Fbg [2]: 324 mg/dL
Hb [2]: 13.1 g/dL
Ht [2]: 38.8%
Lym [2]: 79.8%
MCHC [2]: 33.7%
MCV [2]: 62.5 fL
Mono [2]: 2.4%
Neu [2]: 16.2%
PT [2]: 15.6 s
Plat [2]: 123.7 x10_4/uL
RBC [2]: 621.2 x10_4/ul
Ret [2]: 6%
WBC [2]: 109.9 x10_2/uL
APTT [3]: 22.3 s
Bas [3]: 0%
Eos [3]: 0.8%
Fbg [3]: 285.6 mg/dL
Hb [3]: 14.1 g/dL
Ht [3]: 41.4%
Lym [3]: 82.6%
MCHC [3]: 34.1%
MCV [3]: 62 fL
Mono [3]: 2.2%
Neu [3]: 13.6%
PT [3]: 16.3 s
Plat [3]: 121.5 x10_4/uL
RBC [3]: 669.8 x10_4/ul
Ret [3]: 4.7%
WBC [3]: 112.2 x10_2/uL
APTT [4]: 23.4 s
Bas [4]: 0%
Eos [4]: 1.2%
Fbg [4]: 332.6 mg/dL
Hb [4]: 15.4 g/dL
Ht [4]: 43.4%
Lym [4]: 84%
MCHC [4]: 35.5%
MCV [4]: 58.1 fL
Mono [4]: 1.4%
Neu [4]: 12.6%
PT [4]: 15.8 s
Plat [4]: 122.2 x10_4/uL
RBC [4]: 747 x10_4/ul
Ret [4]: 2.9%
WBC [4]: 117 x10_2/uL
KIDNEY_L [2]: 1.1 g
KIDNEY_R [2]: 1 g
KIDNEY_TOTAL [2]: 2.1 g
KIDNEY_L [3]: 1.2 g
KIDNEY_R [3]: 1.2 g
KIDNEY_TOTAL [3]: 2.4 g
KIDNEY_L [4]: 1.4 g
KIDNEY_R [4]: 1.5 g
KIDNEY_TOTAL [4]: 2.9 g
LIVER [2]: 12.4 g
LIVER [3]: 13.9 g
LIVER [4]: 17.5 g
ALP [2]: 1383 IU/L
ALT [2]: 39.4 IU/L
AST [2]: 61 IU/L
CRE [2]: 0.2 mg/dL
DBIL [2]: 0.004 mg/dL
GLC [2]: 187.6 mg/dL
IP [2]: 6.9 mg/dL
K [2]: 4.1 meq/L
LDH [2]: 159.2 IU/L
Na [2]: 141.8 meq/L
PL [2]: 146.4 mg/dL
RALB [2]: 3.1 g/dL
TBIL [2]: 0.024 mg/dL
TC [2]: 74.8 mg/dL
TG [2]: 120.4 mg/dL
TP [2]: 5.8 g/dL
gamma-GTP [2]: 1 IU/L
ALP [3]: 1572.8 IU/L
ALT [3]: 41.8 IU/L
AST [3]: 65.8 IU/L
CRE [3]: 0.2 mg/dL
DBIL [3]: 0 mg/dL
GLC [3]: 174.2 mg/dL
IP [3]: 7 mg/dL
K [3]: 4.2 meq/L
LDH [3]: 130 IU/L
Na [3]: 142.8 meq/L
PL [3]: 147 mg/dL
RALB [3]: 3.1 g/dL
TBIL [3]: 0.002 mg/dL
TC [3]: 70.6 mg/dL
TG [3]: 163.4 mg/dL
TP [3]: 5.6 g/dL
gamma-GTP [3]: 1.6 IU/L
ALP [4]: 1131.8 IU/L
ALT [4]: 44 IU/L
AST [4]: 74.6 IU/L
CRE [4]: 0.2 mg/dL
DBIL [4]: 0.002 mg/dL
GLC [4]: 186.4 mg/dL
IP [4]: 6.3 mg/dL
K [4]: 3.9 meq/L
LDH [4]: 146.2 IU/L
Na [4]: 143.6 meq/L
PL [4]: 160 mg/dL
RALB [4]: 3.2 g/dL
TBIL [4]: 0.028 mg/dL
TC [4]: 81 mg/dL
TG [4]: 138.4 mg/dL
TP [4]: 6.3 g/dL
gamma-GTP [4]: 1.6 IU/L
TERMINAL_BW [5]: 211.2 g
APTT [5]: 21.7 s
Bas [5]: 0%
Eos [5]: 1%
Fbg [5]: 282.8 mg/dL
Hb [5]: 13.4 g/dL
Ht [5]: 39.8%
Lym [5]: 77.6%
MCHC [5]: 33.8%
MCV [5]: 64.7 fL
Mono [5]: 2.4%
PT [5]: 15.7 s
Plat [5]: 124.6 x10_4/uL
RBC [5]: 617 x10_4/ul
Ret [5]: 6.3%
WBC [5]: 85 x10_2/uL
KIDNEY_L [5]: 0.9 g
KIDNEY_R [5]: 0.9 g
KIDNEY_TOTAL [5]: 1.9 g
LIVER [5]: 10.5 g
ALP [5]: 1803.2 IU/L
ALT [5]: 45 IU/L
AST [5]: 73.6 IU/L
CRE [5]: 0.1 mg/dL
DBIL [5]: 0.002 mg/dL
GLC [5]: 158 mg/dL
IP [5]: 7.3 mg/dL
K [5]: 4.4 meq/L
LDH [5]: 193.6 IU/L
Na [5]: 143.2 meq/L
PL [5]: 127.4 mg/dL
RALB [5]: 3 g/dL
TBIL [5]: 0.01 mg/dL
TC [5]: 67 mg/dL
TG [5]: 74.6 mg/dL
TP [5]: 5.7 g/dL
gamma-GTP [5]: 1.2 IU/L
TERMINAL_BW [6]: 243.1 g
TERMINAL_BW [7]: 290.1 g
TERMINAL_BW [8]: 332.2 g
APTT [6]: 23.9 s
Bas [6]: 0%
Eos [6]: 0.6%
Fbg [6]: 311.5 mg/dL
Hb [6]: 13.8 g/dL
Ht [6]: 39.7%
Lym [6]: 80.4%
MCHC [6]: 34.7%
MCV [6]: 62.1 fL
Mono [6]: 2.2%
Neu [6]: 15.6%
PT [6]: 15.6 s
Plat [6]: 125.6 x10_4/uL
RBC [6]: 638.6 x10_4/ul
Ret [6]: 4.6%
WBC [6]: 101.9 x10_2/uL
APTT [7]: 25.5 s
Bas [7]: 0%
Eos [7]: 0.8%
Fbg [7]: 281.6 mg/dL
Hb [7]: 14.4 g/dL
Ht [7]: 42.7%
Lym [7]: 81.6%
MCHC [7]: 33.6%
MCV [7]: 60.3 fL
Mono [7]: 1.8%
Neu [7]: 14.6%
PT [7]: 16.3 s
Plat [7]: 121.7 x10_4/uL
RBC [7]: 709.6 x10_4/ul
Ret [7]: 4.4%
WBC [7]: 118.8 x10_2/uL
APTT [8]: 25.5 s
Bas [8]: 0%
Eos [8]: 1%
Fbg [8]: 299 mg/dL
Hb [8]: 15.7 g/dL
Ht [8]: 44.4%
Lym [8]: 85.2%
MCHC [8]: 35.4%
MCV [8]: 56.8 fL
Mono [8]: 1.4%
Neu [8]: 11.6%
PT [8]: 15.9 s
Plat [8]: 105 x10_4/uL
RBC [8]: 781.8 x10_4/ul
Ret [8]: 2.5%
WBC [8]: 89.2 x10_2/uL
KIDNEY_L [6]: 1.1 g
KIDNEY_R [6]: 1.1 g
KIDNEY_TOTAL [6]: 2.2 g
KIDNEY_L [7]: 1.2 g
KIDNEY_R [7]: 1.2 g
KIDNEY_TOTAL [7]: 2.3 g
KIDNEY_L [8]: 1.3 g
KIDNEY_R [8]: 1.3 g
KIDNEY_TOTAL [8]: 2.6 g
LIVER [6]: 13.6 g
LIVER [7]: 13.6 g
LIVER [8]: 13.8 g
ALP [6]: 1547.2 IU/L
ALT [6]: 39.4 IU/L
AST [6]: 59.6 IU/L
CRE [6]: 0.2 mg/dL
DBIL [6]: 0 mg/dL
GLC [6]: 167 mg/dL
IP [6]: 6.8 mg/dL
K [6]: 4.2 meq/L
LDH [6]: 173 IU/L
Na [6]: 142.2 meq/L
PL [6]: 145.2 mg/dL
RALB [6]: 3 g/dL
TBIL [6]: 0.024 mg/dL
TC [6]: 77.8 mg/dL
TG [6]: 78.6 mg/dL
TP [6]: 5.8 g/dL
gamma-GTP [6]: 1 IU/L
ALP [7]: 1535.6 IU/L
ALT [7]: 43.6 IU/L
AST [7]: 65.6 IU/L
CRE [7]: 0.2 mg/dL
Ca [7]: 10.2 mg/dL
DBIL [7]: 0 mg/dL
GLC [7]: 186 mg/dL
IP [7]: 6.4 mg/dL
K [7]: 4.1 meq/L
LDH [7]: 157.2 IU/L
Na [7]: 143 meq/L
PL [7]: 137.8 mg/dL
RALB [7]: 3 g/dL
TBIL [7]: 0.004 mg/dL
TC [7]: 69.4 mg/dL
TG [7]: 99.4 mg/dL
TP [7]: 5.7 g/dL
gamma-GTP [7]: 1.6 IU/L
ALP [8]: 1175.6 IU/L
ALT [8]: 40.4 IU/L
AST [8]: 62 IU/L
CRE [8]: 0.2 mg/dL
Ca [8]: 10 mg/dL
DBIL [8]: 0 mg/dL
GLC [8]: 183.2 mg/dL
IP [8]: 5.4 mg/dL
K [8]: 4 meq/L
LDH [8]: 135.8 IU/L
Na [8]: 143.4 meq/L
PL [8]: 135.4 mg/dL
RALB [8]: 3.1 g/dL
TBIL [8]: 0.024 mg/dL
TC [8]: 67.2 mg/dL
TG [8]: 95.4 mg/dL
TP [8]: 6.1 g/dL
gamma-GTP [8]: 1.4 IU/L
